Experiments:
SIRT5 [1] = target: T1, SIRT5 (Homo sapiens, UniProt Q9NXA8); assay: Western blot of CPS1Ac in HEK293 cells; assay type: cell-based
T1 construct: endogenous in cells; host or cells: HEK293
T1 sequence (Q9NXA8 37-310): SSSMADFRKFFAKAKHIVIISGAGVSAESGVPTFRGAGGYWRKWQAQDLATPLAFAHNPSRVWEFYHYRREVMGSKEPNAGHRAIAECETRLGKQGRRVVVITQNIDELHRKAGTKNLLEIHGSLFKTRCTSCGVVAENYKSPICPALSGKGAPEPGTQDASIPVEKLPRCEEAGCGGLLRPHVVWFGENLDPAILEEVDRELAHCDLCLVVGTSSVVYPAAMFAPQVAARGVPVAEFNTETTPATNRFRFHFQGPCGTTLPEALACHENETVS
Method: The cellular activity of probes 2A and 2B was also investigated. […] SIRT5 is known to deacetylate and activate carbamoyl phosphate synthetase I (CPS1), which is the enzyme catalyzing the first step of the urea cycle. Cells were treated with either probe 2B or a known SIRT5 inhibitor, suramin, before the acetylation level of CPS1 (CPS1Ac) was examined.
The cell lysate was resolved on a 10% SDS-PAGE gel and transferred to Immobilon PVDF transfer membrane (Millipore, Burlington, MA, USA). The blot was blocked with 5% nonfat milk, probed with primary antibody targeting H3K9Ac (Sigma-Aldrich, St. Louis, MO, USA), H3 (Abcam, Cambridge, MA, USA), acetyllysine or CPS1 (Cell Signaling Technology, Beverly, MA, USA), washed with PBST, followed by incubation with anti-rabbit or anti-mouse HRP conjugated secondary antibody. Then, the signal was detected by SuperSignal West Pico Chemiluminescent substrate (Thermo Fisher Scientific, Rockford, IL, USA).

SIRT5 [2] = target: T2, SIRT5 (Homo sapiens, UniProt Q9NXA8); assay: Labeling of SIRT5 in partially purified recombinant sirtuin mixture and peptide competition; assay type: biochemical; conditions: 500 μM NAD+, increasing concentrations of probe, 20 min irradiation
T2 construct: SIRT5 (34-302); made in house
T2 sequence (Q9NXA8 34-302): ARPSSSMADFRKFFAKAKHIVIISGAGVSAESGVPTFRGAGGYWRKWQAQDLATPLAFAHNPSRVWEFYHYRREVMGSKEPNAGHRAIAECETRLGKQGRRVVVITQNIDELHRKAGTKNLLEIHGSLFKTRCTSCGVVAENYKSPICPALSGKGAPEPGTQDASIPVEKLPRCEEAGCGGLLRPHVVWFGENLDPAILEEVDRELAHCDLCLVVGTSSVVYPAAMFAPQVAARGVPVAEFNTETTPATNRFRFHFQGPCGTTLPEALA
Text: Probe 2B, being a selective SIRT5 inhibitor, was also selective for SIRT5 in the labeling experiments. […] The on-target effect of probe 2B was further confirmed by the peptide competition analysis. H3K9Suc (Figure 4B), a synthetic peptide that is identical to the N-terminus of histone H3 bearing a succinylated lysine 9 mark, is a known SIRT5 substrate. H3K9Suc was titrated into SIRT5 in the presence of probe 2B.
Figure 4 Labeling of SIRT5 by probe 2B. (A) Dose-dependent labeling of SIRT5 by probe 2B in recombinantly expressed, partially purified sirtuin mixture. SIRT1, SIRT2, SIRT3, SIRT5, and SIRT6 were mixed and incubated with 500 μM NAD^+ and increasing concentrations of 2B. The samples were incubated at 37 °C for 10 min and subjected to UV irradiation for 20 min, and then “click” conjugated to TAMRA-azide; (B) Chemical structure of H3K9Suc; (C) Peptide competition. The labeling of SIRT5 by probe 2B decreased with increasing concentrations of the competitor peptide, H3K9Suc.
A typical labeling experiment was performed as follows: in a 0.7 mL Eppendorf tube, purified recombinant human sirtuin (10 μM) was incubated with NAD^+ (500 μM) and activity-based probe at 37 °C for 10 min. […] Then, destained gel was analyzed with in-gel fluorescence scanning using a Biorad ChemiDoc MP imager (excitation 532 nm, 580 nm cut-off filter and 30 nm band-pass). […]

SIRT6H133Y = SIRT6H133Y (Homo sapiens, UniProt Q8N6T7, H133Y); assay: Labeling of catalytically inactive mutant SIRT6H133Y; assay type: biochemical
Method: Remarkably, probe 2C was also able to label individual sirtuin isoforms in cell lysates. HEK293 cells overexpressing human SIRT2 were lysed, and the lysate was subjected to the labeling by 10 μM probe 2C.
A typical labeling experiment was performed as follows: in a 0.7 mL Eppendorf tube, purified recombinant human sirtuin (10 μM) was incubated with NAD^+ (500 μM) and activity-based probe at 37 °C for 10 min. The sample was transferred to a clear-bottom 96-well plate, placed on ice, and irradiated at 365 nm with a UV-lamp in a cold room. Subsequently, ingredients of the “click-chemistry” including azide-fluor 545, CuSO4, reducing agent (tris(2-carboxyethyl)phosphine, TCEP) and stabilizing agent (tris[(1-benzyl-1H-1,2,3-triazol-4-yl)methyl]amine, TBTA) were added, and the sample was gently agitated at 250 rpm on a microshaker at room temperature for 30 min. Then, the sample was resolved by SDS-PAGE. To […] the signal to noise ratio, the gel was destained to eliminate non-specific binding of free dyes. This was done in a mixture of methanol/distilled water/acetic acid (v/v/v = 4/5/1) at ambient temperature for 4 h. Then, destained gel was analyzed with in-gel fluorescence scanning using a Biorad ChemiDoc MP imager (excitation 532 nm, 580 nm cut-off filter and 30 nm band-pass). Finally, Coomassie blue staining was applied to provide loading control.

Sequence of SIRT6H133Y (Q8N6T7 whole entry H133Y, canonical isoform): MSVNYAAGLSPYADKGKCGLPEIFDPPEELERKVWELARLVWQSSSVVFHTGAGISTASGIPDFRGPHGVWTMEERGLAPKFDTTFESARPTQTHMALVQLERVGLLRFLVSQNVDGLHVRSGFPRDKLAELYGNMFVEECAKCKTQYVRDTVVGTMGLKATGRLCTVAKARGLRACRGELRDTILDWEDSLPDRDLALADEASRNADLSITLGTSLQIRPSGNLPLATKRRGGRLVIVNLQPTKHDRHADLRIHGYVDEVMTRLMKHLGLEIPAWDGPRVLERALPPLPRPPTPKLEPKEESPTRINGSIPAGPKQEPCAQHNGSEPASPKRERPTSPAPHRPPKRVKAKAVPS

Structure (SMILES)	CPS1Ac level compared to control (SIRT5 [1])	labeling of SIRT5 in sirtuin mixture (SIRT5 [2])	labeling of SIRT6H133Y (SIRT6H133Y)
C#CCCCC1(CCC(=O)N[C@@H](CCCCNC(=S)CCC(=O)O)C(=O)N[C@@H](C)C(=O)N[C@@H](C)C(=O)OC)N=N1 [Probe 2B]	increased CPS1Ac level	robust labeling of SIRT5 in a concentration-dependent fashion	
C#CCCCC1(CCC(=O)N[C@@H](CCCCNC(=S)CCCCCCCCCCCCC)C(=O)N[C@@H](C)C(=O)N[C@@H](C)C(=O)OC)N=N1 [Probe 2C]			failed to label
